Data taken from patent US11857578B2, “Extract and dermatological composition comprising same, for treating sensitive skin” (PIERRE FABRE DERMO-COSMETIQUE, priority 2018, dated 2024).

Tests used:
Format in all cases: cell-based
[1] = test system: S100A7; test: RT-qPCR gene expression of innate immunity marker S100A7 in normal human epidermal keratinocytes; conditions: 1.5 mM, 48 h incubation, three donors
Method: (§1) The purpose of this study is to evaluate the effects of the bacterial extract according to the invention on the gene expression of normal human epidermal keratinocytes by an RT-PCR technique on two genes related to innate immunity.
(§2) The study is carried out on normal human epidermal keratinocytes from three donors. These cells are used at their third passage. These cells are cultured in a standard medium supplemented with epidermal growth factor (EGF), pituitary extract (PE) and gentamycin, using conventional laboratory procedures.
(§3) The bacterial extract according to the invention is tested at three concentrations: 0.4, 2 and 10 μg/ml (μg/ml protein).
(§4) At the same time, calcium chloride is tested at 1.5 mM as reference product.
(§5) The keratinocytes are seeded in 24-well plates (50,000 cells per well) and cultured for 24 hours in a culture medium. […]
(§6) The expression of markers is analyzed by the RT-qPCR method on total RNA extracted from the cells under each condition. […] The quantity and quality of RNA are evaluated by capillary electrophoresis. cDNA is synthesized by reverse transcription of total RNA in the presence of oligo(dT) and Transcriptor Reverse Transcriptase. […]
(§7) Fluorescence incorporation into amplified DNA is continuously measured during PCR cycles. […]
(§8) The parameter RQ (relative quantification) is defined as the relative expression/100. […]

[2] = test system: HBD2; test: RT-qPCR gene expression of innate immunity marker HBD2 in normal human epidermal keratinocytes; conditions: 1.5 mM, 48 h incubation, three donors
Method: as §1, §2, §3, §4, §5, §6, §7, §8

[3] = test system: IL-1β; test: IL-1β release by human epidermal keratinocytes activated by substance P (ELISA)
Method: (§9) The purpose of this study is to evaluate the modulatory properties of the bacterial extract according to the invention in skin inflammation. To that end, an in vitro experimental approach based on the measurement of production and release of tumor necrosis factor-alpha (TNF-α) and interleukin-1 beta (IL-1β) by human epidermal keratinocytes, activated by substance P, is proposed as an in vitro model of cutaneous neurogenic inflammation. The study is carried out on normal human epidermal keratinocytes; these cells are obtained from newborn foreskin. These cells are cultured in a serum-free medium using conventional laboratory procedures. The determination of markers of cutaneous neurogenic inflammation is carried out on these keratinocytes cultured in a medium in the absence (control condition) or in the presence of the compounds to be tested (bacterial extract according to the invention and reference product), and optionally exposed to substance P. The keratinocytes are treated 3 hours before the stress induced by substance P and during the following 24 hours. Levels of proinflammatory cytokines (TNF-α and IL-1β) are quantified 24 h after the induction of inflammatory stress by the addition of substance P (0.5 μM). […] TNF-α and IL-1β productions are measured in the incubation media and quantified by the enzyme-linked immunosorbent assay (ELISA).

[4] = test system: TNF-α; test: TNF-α release by human epidermal keratinocytes activated by substance P (ELISA)
Method: as §9

[5] = 1 μM, keratinocytes treated 3 h before and 24 h during substance P (0.5 μM)

## [Ca+2].[Cl-].[Cl-] [Calcium chloride, calcium chloride]
[1]
  S100A7 gene expression, Mean (multiplicative factor, RQ vs control): 4.1
[1]; listed as calcium chloride
  S100A7 gene expression, Mean (multiplicative factor, RQ vs control): strong expression
[2]
  HBD2 gene expression, Mean (multiplicative factor, RQ vs control): 5.8
[2]; listed as calcium chloride
  HBD2 gene expression, Mean (multiplicative factor, RQ vs control): strong expression

## COc1ccccc1CN[C@H]1C2CCN(CC2)[C@H]1C(c1ccccc1)c1ccccc1 [NK-1R inh, CP96345]
[3]; [5]
  IL-1β mean: 132.5 pg/mL
[3]; Homo sapiens, Keratinocyte, versus Cont SP(+), substance P 0.5 μM, 24 h, read-out: IL-1β % Inh
  inhibition at 1 µM: 91%
[4]; [5]
  TNF-α mean: 4.6 pg/mL
[4]; Homo sapiens, Keratinocyte, versus Cont SP(+), substance P 0.5 μM, 24 h, read-out: TNF-α % Inh
  inhibition at 1 µM: 90%
